2 compounds from ChEMBL document CHEMBL1287739, “A novel ring-expanded product with enhanced tyrosinase inhibitory activity from classical Fe-catalyzed oxidation of rosmarinic acid, a potent antioxidative Lamiaceae polyphenol” (Bioorg Med Chem Lett, 2010) can be followed below.

In test [1] the target is T1, Tyrosinase (Agaricus bisporus) (UniProt O42713).
T1 sequence (whole entry): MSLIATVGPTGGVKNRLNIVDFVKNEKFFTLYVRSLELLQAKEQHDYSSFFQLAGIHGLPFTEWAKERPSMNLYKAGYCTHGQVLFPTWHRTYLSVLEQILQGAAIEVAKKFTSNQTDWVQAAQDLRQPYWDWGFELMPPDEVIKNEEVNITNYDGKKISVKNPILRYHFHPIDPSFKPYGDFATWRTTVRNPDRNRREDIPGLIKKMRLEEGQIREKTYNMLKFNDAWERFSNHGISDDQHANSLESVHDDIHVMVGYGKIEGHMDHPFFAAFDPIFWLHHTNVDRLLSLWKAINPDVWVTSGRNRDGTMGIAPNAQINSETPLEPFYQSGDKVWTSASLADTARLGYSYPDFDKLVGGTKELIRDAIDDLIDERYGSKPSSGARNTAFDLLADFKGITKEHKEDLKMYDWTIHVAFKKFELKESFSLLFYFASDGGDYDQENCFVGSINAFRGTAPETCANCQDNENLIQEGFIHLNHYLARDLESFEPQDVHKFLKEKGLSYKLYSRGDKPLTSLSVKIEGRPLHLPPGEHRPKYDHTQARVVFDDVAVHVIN
The experiment in a line: Inhibition of mushroom tyrosinase at 0.10 mM.

Another test addresses T2, Tyrosinase (Agaricus bisporus, UniProt O42713).
T2 sequence (O42713 whole entry): T1 sequence (whole entry)
The experiment in a line: Inhibition of mushroom tyrosinase.

In test [2] the target is T1, Tyrosinase (Agaricus bisporus). The experiment in a line: Inhibition of mushroom tyrosinase at 10.0 mM.
Test [3] shares this target. The experiment in a line: Inhibition of mushroom tyrosinase at 1.00 mM.
Test [4] has the same target. The experiment in a line: Inhibition of mushroom tyrosinase at 3.00 mM.

The term inhibition denotes the relative decrease from the control value, in per cent. As usually defined, the IC50 is the concentration that gives 50% inhibition. A low value points to greater potency. In test [1], `CCOc1cc(=O)c(C[C@@H](OC(=O)/C=C/c2ccc(O)c(O)c2)C(=O)O)coc1=O` displayed an inhibition of 52.5%. Further, half-maximal inhibition against Tyrosinase (IC50) required 80 µM.
On to `O=C(/C=C/c1ccc(O)c(O)c1)O[C@H](Cc1ccc(O)c(O)c1)C(=O)O` [ROSMARINIC ACID], for which the inhibition in test [2] came out at 93.6%; in test [3], 40.7%; in test [4], 69.8%. Moreover, the IC50 against Tyrosinase is 250 µM.
